Results taken from ChEMBL document CHEMBL3991601, “The target landscape of clinical kinase drugs” (Science, 2017).
Activity calls are given as the source filed them. Cut-off read from the data, not from the text of the source, for most assays here: actives have a measured Kd and inactives only a lower limit.

Assays:
[1] = target: Ras-related protein Rab-6A (Homo sapiens, UniProt P20340)
[2] = target: STE20-like serine/threonine-protein kinase (Homo sapiens, UniProt Q9H2G2)
[3] = target: Ribosomal protein S6 kinase alpha-3 (Homo sapiens, UniProt P51812)
[4] = target: Serine/threonine-protein kinase 16 (Homo sapiens, UniProt O75716)
[5] = target: Tyrosine-protein kinase Lyn (Homo sapiens, UniProt P07948)
[6] = target: T1, Cysteine--tRNA ligase, cytoplasmic (Homo sapiens, UniProt P49589)
T1 sequence (P49589 whole entry): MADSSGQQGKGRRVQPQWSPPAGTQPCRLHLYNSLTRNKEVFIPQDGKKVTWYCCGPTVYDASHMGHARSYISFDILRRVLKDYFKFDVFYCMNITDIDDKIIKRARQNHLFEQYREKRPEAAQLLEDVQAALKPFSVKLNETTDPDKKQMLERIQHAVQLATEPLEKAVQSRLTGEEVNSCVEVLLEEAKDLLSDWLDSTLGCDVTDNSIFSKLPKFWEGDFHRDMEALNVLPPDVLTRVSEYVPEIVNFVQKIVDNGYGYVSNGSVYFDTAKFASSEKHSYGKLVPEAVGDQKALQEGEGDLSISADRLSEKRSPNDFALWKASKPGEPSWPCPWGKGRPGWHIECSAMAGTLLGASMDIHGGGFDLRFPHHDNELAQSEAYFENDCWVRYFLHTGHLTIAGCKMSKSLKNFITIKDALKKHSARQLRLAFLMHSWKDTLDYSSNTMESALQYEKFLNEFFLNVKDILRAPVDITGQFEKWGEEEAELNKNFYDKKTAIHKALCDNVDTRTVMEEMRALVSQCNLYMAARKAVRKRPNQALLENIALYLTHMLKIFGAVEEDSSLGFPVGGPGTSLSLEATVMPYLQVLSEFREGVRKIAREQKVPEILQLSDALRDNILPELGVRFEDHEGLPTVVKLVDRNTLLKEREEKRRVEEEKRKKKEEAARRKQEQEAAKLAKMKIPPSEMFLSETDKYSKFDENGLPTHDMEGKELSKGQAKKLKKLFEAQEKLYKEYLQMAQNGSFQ

[7] = target: T2, Breakpoint cluster region protein (Homo sapiens, UniProt P11274)
T2 sequence (P11274 whole entry): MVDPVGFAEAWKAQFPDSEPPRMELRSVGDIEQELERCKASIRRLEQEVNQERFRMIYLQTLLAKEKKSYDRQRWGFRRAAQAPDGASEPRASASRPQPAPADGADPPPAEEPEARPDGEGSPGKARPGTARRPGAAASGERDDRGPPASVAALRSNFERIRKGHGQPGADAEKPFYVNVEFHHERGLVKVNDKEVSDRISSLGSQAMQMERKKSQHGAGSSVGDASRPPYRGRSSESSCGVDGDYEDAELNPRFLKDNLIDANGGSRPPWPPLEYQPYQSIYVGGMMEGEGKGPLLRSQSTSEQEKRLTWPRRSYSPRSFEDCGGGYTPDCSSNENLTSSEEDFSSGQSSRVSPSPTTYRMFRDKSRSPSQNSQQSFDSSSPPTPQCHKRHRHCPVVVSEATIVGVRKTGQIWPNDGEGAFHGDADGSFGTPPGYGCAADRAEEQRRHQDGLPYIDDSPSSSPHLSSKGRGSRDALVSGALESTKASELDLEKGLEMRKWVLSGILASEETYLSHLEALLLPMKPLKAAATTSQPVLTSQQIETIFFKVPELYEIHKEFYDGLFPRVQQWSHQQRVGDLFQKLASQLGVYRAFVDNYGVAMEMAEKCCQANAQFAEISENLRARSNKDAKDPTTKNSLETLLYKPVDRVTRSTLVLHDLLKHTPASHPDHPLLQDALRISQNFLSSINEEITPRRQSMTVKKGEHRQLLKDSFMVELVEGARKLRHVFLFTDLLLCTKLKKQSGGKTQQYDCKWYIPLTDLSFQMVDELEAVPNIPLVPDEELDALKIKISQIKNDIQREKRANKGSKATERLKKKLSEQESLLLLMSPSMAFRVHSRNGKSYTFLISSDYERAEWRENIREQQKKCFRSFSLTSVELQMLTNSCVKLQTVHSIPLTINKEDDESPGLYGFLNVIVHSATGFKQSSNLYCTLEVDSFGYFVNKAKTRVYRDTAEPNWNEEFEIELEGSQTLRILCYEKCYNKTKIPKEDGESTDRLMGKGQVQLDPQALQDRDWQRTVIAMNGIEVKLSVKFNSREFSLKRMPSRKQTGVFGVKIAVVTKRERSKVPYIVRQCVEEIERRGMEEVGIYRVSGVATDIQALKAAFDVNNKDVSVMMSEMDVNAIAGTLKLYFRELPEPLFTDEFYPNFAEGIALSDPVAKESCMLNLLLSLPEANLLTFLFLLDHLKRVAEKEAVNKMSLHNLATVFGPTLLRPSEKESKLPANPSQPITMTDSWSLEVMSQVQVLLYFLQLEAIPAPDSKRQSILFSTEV

[8] = target: T3, Serine/threonine-protein kinase ICK (Homo sapiens, UniProt Q9UPZ9)
T3 sequence (Q9UPZ9 whole entry): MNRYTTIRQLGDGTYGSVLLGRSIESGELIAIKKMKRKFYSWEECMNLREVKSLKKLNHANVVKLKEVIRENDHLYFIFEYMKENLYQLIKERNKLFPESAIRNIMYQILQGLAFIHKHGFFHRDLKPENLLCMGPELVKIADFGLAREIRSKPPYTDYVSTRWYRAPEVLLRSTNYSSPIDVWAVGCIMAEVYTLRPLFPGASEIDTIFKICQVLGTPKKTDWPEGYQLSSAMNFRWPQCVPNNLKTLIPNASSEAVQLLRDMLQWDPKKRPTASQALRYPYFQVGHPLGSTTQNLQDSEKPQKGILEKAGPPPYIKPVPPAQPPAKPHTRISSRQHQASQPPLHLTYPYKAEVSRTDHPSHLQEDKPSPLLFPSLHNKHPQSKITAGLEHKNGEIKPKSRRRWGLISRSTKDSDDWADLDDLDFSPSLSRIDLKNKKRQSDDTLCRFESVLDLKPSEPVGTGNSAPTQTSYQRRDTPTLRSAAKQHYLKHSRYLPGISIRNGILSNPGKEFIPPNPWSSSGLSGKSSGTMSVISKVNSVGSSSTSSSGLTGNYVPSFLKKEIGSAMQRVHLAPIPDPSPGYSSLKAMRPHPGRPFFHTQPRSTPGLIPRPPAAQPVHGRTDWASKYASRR
Note: in the data inactive means no Kd found up to 30 µM.

Sequence of STE20-like serine/threonine-protein kinase (Q9H2G2 whole entry): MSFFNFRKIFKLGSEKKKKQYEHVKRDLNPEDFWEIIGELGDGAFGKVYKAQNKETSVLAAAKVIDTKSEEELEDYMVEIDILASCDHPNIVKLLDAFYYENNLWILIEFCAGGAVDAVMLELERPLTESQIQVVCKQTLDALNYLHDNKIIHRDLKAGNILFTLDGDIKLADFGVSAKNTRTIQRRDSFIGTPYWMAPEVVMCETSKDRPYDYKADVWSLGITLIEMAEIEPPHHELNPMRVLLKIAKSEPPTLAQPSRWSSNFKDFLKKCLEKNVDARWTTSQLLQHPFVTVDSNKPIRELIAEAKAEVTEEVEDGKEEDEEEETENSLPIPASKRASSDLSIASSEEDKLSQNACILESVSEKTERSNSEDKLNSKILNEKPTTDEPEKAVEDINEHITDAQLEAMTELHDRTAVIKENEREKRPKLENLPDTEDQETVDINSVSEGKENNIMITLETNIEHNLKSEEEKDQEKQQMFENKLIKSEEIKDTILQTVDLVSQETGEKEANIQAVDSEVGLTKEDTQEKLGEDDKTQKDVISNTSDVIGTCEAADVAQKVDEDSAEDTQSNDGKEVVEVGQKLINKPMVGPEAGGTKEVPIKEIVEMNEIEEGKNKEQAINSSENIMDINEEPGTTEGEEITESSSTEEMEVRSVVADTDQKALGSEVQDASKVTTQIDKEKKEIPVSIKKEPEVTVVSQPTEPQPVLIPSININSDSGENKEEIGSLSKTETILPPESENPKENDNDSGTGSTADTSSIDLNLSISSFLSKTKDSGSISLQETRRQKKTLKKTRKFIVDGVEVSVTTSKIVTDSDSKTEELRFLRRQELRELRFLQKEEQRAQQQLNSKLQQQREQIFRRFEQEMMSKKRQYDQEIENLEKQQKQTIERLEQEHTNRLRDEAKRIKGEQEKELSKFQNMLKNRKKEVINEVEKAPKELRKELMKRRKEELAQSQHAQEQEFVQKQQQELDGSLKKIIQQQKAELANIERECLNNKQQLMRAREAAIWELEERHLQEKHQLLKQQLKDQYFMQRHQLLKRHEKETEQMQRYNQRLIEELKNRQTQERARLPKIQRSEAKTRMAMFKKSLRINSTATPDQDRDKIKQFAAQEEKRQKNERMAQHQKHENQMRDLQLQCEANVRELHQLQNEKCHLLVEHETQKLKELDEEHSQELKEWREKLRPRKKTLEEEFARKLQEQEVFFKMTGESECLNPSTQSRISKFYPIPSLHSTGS
Sequence of Serine/threonine-protein kinase 16 (O75716 whole entry): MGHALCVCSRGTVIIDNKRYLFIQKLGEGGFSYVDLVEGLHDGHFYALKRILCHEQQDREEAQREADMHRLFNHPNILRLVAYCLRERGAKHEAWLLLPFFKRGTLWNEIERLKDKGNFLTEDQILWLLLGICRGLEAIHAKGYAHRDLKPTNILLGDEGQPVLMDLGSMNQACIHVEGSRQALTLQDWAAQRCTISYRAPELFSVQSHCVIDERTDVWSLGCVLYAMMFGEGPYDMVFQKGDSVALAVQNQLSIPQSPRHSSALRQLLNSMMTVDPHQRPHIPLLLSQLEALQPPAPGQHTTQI
Sequence of Ribosomal protein S6 kinase alpha-3 (P51812 whole entry): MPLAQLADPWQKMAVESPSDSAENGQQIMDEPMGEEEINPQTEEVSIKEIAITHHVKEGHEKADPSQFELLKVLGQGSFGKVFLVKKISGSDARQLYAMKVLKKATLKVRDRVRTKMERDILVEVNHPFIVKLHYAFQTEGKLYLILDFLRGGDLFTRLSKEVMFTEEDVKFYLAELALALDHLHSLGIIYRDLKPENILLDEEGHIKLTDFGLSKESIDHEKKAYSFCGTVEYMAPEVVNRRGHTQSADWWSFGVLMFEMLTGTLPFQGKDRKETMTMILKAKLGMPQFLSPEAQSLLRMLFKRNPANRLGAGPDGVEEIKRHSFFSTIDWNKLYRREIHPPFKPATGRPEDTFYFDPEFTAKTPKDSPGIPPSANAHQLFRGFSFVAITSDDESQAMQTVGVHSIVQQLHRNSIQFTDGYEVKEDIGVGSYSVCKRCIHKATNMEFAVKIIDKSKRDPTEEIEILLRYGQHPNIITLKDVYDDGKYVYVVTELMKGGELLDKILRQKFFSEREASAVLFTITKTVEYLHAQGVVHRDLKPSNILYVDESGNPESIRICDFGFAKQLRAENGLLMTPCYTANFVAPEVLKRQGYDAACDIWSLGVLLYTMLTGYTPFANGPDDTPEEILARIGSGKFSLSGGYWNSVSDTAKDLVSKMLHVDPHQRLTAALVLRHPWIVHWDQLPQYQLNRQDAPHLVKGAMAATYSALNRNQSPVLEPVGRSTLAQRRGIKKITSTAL
Sequence of Tyrosine-protein kinase Lyn (P07948 whole entry): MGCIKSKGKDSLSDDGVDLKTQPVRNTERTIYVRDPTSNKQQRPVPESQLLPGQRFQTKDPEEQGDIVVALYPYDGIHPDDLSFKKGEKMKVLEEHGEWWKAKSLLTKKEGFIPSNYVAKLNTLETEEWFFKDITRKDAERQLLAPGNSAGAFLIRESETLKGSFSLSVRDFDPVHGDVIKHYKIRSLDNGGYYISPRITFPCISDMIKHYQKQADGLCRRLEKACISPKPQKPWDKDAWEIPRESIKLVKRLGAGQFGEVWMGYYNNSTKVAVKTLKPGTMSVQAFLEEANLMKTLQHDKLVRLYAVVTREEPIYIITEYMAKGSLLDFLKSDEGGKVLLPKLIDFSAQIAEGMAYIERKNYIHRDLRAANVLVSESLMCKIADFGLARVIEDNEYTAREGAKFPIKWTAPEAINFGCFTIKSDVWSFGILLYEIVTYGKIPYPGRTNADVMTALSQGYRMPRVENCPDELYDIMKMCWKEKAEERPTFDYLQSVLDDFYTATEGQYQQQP
Sequence of Ras-related protein Rab-6A (P20340 whole entry): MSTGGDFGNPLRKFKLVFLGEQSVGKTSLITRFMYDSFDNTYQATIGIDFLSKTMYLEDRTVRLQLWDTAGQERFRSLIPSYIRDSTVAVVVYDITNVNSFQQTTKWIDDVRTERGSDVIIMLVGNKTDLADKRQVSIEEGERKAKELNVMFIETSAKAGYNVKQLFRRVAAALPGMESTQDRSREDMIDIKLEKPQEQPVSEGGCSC

Kd [1]	Kd [2]	Kd [3]	Kd [4]	Kd [5]	Kd [6]	Kd [7]	Kd [8]	SMILES
> 30 µM (inactive)	> 30 µM (inactive)	> 30 µM (inactive)	2.01 µM (active)	> 30 µM (inactive)	> 30 µM (inactive)	> 30 µM (inactive)	> 30 µM (inactive)	Cc1nc2cc(-c3nn(C(C)C)c4ncnc(N)c34)ccc2o1
> 30 µM (inactive)	> 30 µM (inactive)	> 30 µM (inactive)	> 30 µM (inactive)	2.44 µM (active)	> 30 µM (inactive)	> 30 µM (inactive)	> 30 µM (inactive)	Nc1ncnc2c1c(-c1cccc(OCc3ccccc3)c1)cn2[C@H]1C[C@@H](CN2CCC2)C1 [AEW-541]
> 30 µM (inactive)	> 30 µM (inactive)	> 30 µM (inactive)	> 30 µM (inactive)	> 30 µM (inactive)	> 30 µM (inactive)	> 30 µM (inactive)	> 30 µM (inactive)	COCC(=O)NC/C=C/c1ccc2ncnc(Nc3ccc(Oc4ccc(C)nc4)c(C)c3)c2c1 [CP-724714]
> 30 µM (inactive)	> 30 µM (inactive)	> 30 µM (inactive)	> 30 µM (inactive)	> 30 µM (inactive)	> 30 µM (inactive)	> 30 µM (inactive)	> 30 µM (inactive)	Cc1cccc(-c2nn3c(c2-c2ccnc4ccc(C(N)=O)cc24)CCC3)n1 [GALUNISERTIB]
	> 30 µM (inactive)	> 30 µM (inactive)	> 30 µM (inactive)	> 30 µM (inactive)	> 30 µM (inactive)	> 30 µM (inactive)	> 30 µM (inactive)	NC1(c2ccc(-c3nc4ccn5c(=O)[nH]nc5c4cc3-c3ccccc3)cc2)CCC1 [MK-2206]

Continued, compound first:

SMILES	Kd [1]	Kd [2]	Kd [3]	Kd [4]	Kd [5]	Kd [6]	Kd [7]	Kd [8]
COCc1c(-c2ccc(NC(=O)Nc3cc(C(F)(F)F)ccc3F)c(F)c2)c2c(N)ncnn2c1CN1CCOCC1	> 30 µM (inactive)	> 30 µM (inactive)	5.31 µM (active)	> 30 µM (inactive)	> 30 µM (inactive)	> 30 µM (inactive)	4.21 µM (active)	> 30 µM (inactive)
Cc1nc(NC(=O)N2CCC[C@H]2C(N)=O)sc1-c1ccnc(C(C)(C)C(F)(F)F)c1 [ALPELISIB]	> 30 µM (inactive)	> 30 µM (inactive)	> 30 µM (inactive)	> 30 µM (inactive)	> 30 µM (inactive)	> 30 µM (inactive)	> 30 µM (inactive)	> 30 µM (inactive)
COc1cc([C@@H]2c3cc4c(cc3[C@H](O)[C@H]3COC(=O)[C@@H]23)OCO4)cc(OC)c1OC [AXL-1717]	> 30 µM (inactive)	> 30 µM (inactive)	> 30 µM (inactive)	> 30 µM (inactive)	> 30 µM (inactive)	> 30 µM (inactive)	> 30 µM (inactive)	> 30 µM (inactive)
Cc1cc(C(=O)NOCCO)c(Nc2ccc(I)cc2F)n(C)c1=O [AZD-8330]	> 30 µM (inactive)	> 30 µM (inactive)	> 30 µM (inactive)	> 30 µM (inactive)	> 30 µM (inactive)	> 30 µM (inactive)	> 30 µM (inactive)	> 30 µM (inactive)
Cn1cnc2c(F)c(Nc3ccc(Br)cc3F)c(C(=O)NOCCO)cc21 [BINIMETINIB]	> 30 µM (inactive)	> 30 µM (inactive)	> 30 µM (inactive)	> 30 µM (inactive)	> 30 µM (inactive)	> 30 µM (inactive)	> 30 µM (inactive)	> 30 µM (inactive)
CCn1c(C(=O)N(C2CC2)C2CC2)cc2c3c(ncn3C)c(Nc3cc(C)n(C)n3)nc21 [BMS-911543]	> 30 µM (inactive)	> 30 µM (inactive)	> 30 µM (inactive)	> 30 µM (inactive)	> 30 µM (inactive)	> 30 µM (inactive)	> 30 µM (inactive)	> 30 µM (inactive)
COc1cc2ncnc(Oc3cccc(NC(=O)Nc4cc(C(C)(C)C(F)(F)F)on4)c3)c2cc1OC [CEP-32496]	> 30 µM (inactive)	> 30 µM (inactive)	> 30 µM (inactive)	> 30 µM (inactive)	0.771 µM (active)	> 30 µM (inactive)	0.041 µM (active)	> 30 µM (inactive)
Cc1cc(Nc2ncc(Cl)c(Nc3ccccc3S(=O)(=O)C(C)C)n2)c(OC(C)C)cc1C1CCNCC1 [CERITINIB]	> 30 µM (inactive)	> 30 µM (inactive)	> 30 µM (inactive)	> 30 µM (inactive)	> 30 µM (inactive)	> 30 µM (inactive)	> 30 µM (inactive)	> 30 µM (inactive)
COc1c(OCCCN2CCOCC2)ccc2c1N=C(NC(=O)c1cnc(N)nc1)N1CCN=C21 [COPANLISIB]	> 30 µM (inactive)	> 30 µM (inactive)	> 30 µM (inactive)	> 30 µM (inactive)	> 30 µM (inactive)	> 30 µM (inactive)	> 30 µM (inactive)	> 30 µM (inactive)
C#Cc1cccc(Nc2ncnc3cc(OC)c(OCCCCCCC(=O)NO)cc23)c1 [CUDC-101]	> 30 µM (inactive)	> 30 µM (inactive)	> 30 µM (inactive)	> 30 µM (inactive)	> 30 µM (inactive)	> 30 µM (inactive)	> 30 µM (inactive)	> 30 µM (inactive)
O=C(Nc1cc(C(F)(F)F)cc(C(F)(F)F)c1)c1cc(Cl)ccc1O [IMD-0354]	> 30 µM (inactive)	> 30 µM (inactive)	> 30 µM (inactive)	> 30 µM (inactive)	> 30 µM (inactive)	> 30 µM (inactive)	> 30 µM (inactive)	> 30 µM (inactive)
